Experimental findings from patent publication US9239334B2, “Fatty acid C16: 1N7-palmitoleate a lipokine and biomarker for metabolic status” (PRESIDENT AND FELLOWS OF HARVARD COLLEGE, priority 2008, dated 2016) are described below.

Entries after “also recorded” stand apart in the source; their conditions may differ.

For one test, the system named is SCD-1 promoter. Description: SCD-1 promoter-driven luciferase reporter in FAO hepatoma cells. The format is cell-based, murine. As to the method:
This possibility was tested using several highly sensitive assays to probe the functional profile and activities of plasma lipids. SCD-1 was chosen as a target because it was determined previously that the suppression of hepatic SCD-1 activity is a major alteration in FABP-deficient mice under diet-induced or genetic obesity. Cao et al., 2006; Maeda et al., 2005. Hepatic SCD-1 expression is regulated by a variety of hormones and nutritional factors such as insulin, glucose, and polyunsaturated fatty acids (PUFAs). Ntambi & Miyazaki, 43 Prog. Lipid Res. 91-104 (2004). […] Chu et al., 26 Mol. Cell Biol. 6786-98 (2006); Ntambi, 40 J. Lipid Res. 1549-58 (1999). The 1.5 kb murine SCD-1 promoter was placed in front of a luciferase reporter and inserted into an adenovirus construct. FAO rat hepatoma cells infected with this adenovirus verified the responsiveness of this reporter to PUFA, consistent with previous observations (FIG. 15). Because this assay system was adapted to a microplate format, very small amounts of lipids were required for experimentation. This system allowed direct testing for the effects of lipids extracted from plasma of WT and FABP-deficient animals.
Lipids were extracted from whole plasma and applied to liver cells expressing the SCD-1 promoter reporter gene. […] To control for any difference in the amount of lipids extracted from plasma and to mimic the in vivo regulation of SCD-1 expression, mixtures of FFAs were generated with the same molar ratio detected in WT or FABP-deficient plasma lipids using the major fatty acids listed in FIG. 2C. […]
(§1) Samples of 200 μl serum were collected using heparin-coated glass tubes and spun at 13,000 g in a microcentrifuge to separate the plasma. […] Tissue protein lysates was separated with SDS-PAGE gels and phosphorylated or total proteins were detected with the following antibodies: phospho AKT Serine 473, AKT, insulin receptor, phospho-tyrosine (Santa Cruz Biotech.); IRS-1 and IRS-2 (Upstate); phospho-GSK and GSK (Cell Signaling Tech.); phospho-insulin receptor from (Calbiocbem). […]

The test system of test [1] is insulin receptor, IRS-1, IRS-2 and AKT phosphorylation in liver. Description: Insulin signaling in liver of lipid-infused mice (immunoblotting). It counts as in vivo. The following applies: fatty acid:palmitoleate infusion 3.3 μl/min.
Description: FIGS. 7A-7G show data on the regulation of insulin signaling and glucose metabolism by palmitoleate. FIG. 7A is the basal and insulin-stimulated phosphorylation of insulin receptor (IR), insulin receptor substrate-1 (IRS-1) and -2 (IRS-2) and AKT in liver of mice infused with vehicle (Veh), TG:palmitoleate (C16:1n7) or TG:palmitate (C16). Representative blots are shown and quantifications on the right are averaged results of three mice in each treatment group. […] Representative blots are shown and quantifications on the right are averaged results of three mice in each treatment group.
The left panel presents the insulin-stimulated phosphorylation of insulin receptor and AKT in liver of mice infused with vehicle or palmitoleate. […] Mice were infused with vehicle or palmitoleate at 3.3 μl/min for six hrs, and insulin (1 U/Kg) was injected through the infusing tubing. Three minutes after insulin injection, tissues were collected and immunoblotting analyses were performed.
The present invention also provides for the regulation of insulin action by increased circulating palmitoleate. To study whether palmitoleate regulates systemic metabolic responses, lipid infusions were administered in conscious mice. Lipid infusion has been used widely to investigate the relationship between plasma FFAs and insulin resistance, but almost all studies using this protocol utilized preparations of natural lipid products containing a variety of fatty acids. Kim et al., 114 J. Clin. Invest. 823-27 (2004); Kim et al., 277 J. Biol. Chem. 32915-22 (2002); Yu et al., 277 J. Biol. Chem. 50230-36 (2002). […]
as §1
(In western blotting, separated proteins are transferred to a membrane and probed.)

The subject of a further test is C2C12 cells. Description: Glucose uptake in C2C12 myotubes. It counts as cell-based. An excerpt: FIG. 3H is the glucose uptake in C2C12 myotubes treated with insulin or palmitoleate. Top panel is immunoblotting of C2C12 cell lysates treated with insulin or palmitoleate using anti-Glut1 or Glut4 antibodies. *: p<0.05.
The effect of C16:1n7-palmitoleate on muscle insulin signaling was explored by pre-treating C2C12 myotubes with either palmitate or palmitoleate overnight and then stimulating the cells with insulin. […] Conversely, C16:1n7-palmitoleate had little effect on its own in this in vitro setting (FIG. 3G). When cells were co-treated with both palmitate and palmitoleate, however, palmitoleate rescued the palmitate-induced reduction in insulin-stimulated AKT phosphorylation. […] The mechanism of this increase is not, apparently, associated with alterations in the absolute levels of Glut1 and Glut4 proteins (FIG. 3H).

As for `CCCCCC/C=C\CCCCCCCC(=O)O` [palmitoleate, C16:1n7-palmitoleate], the “effect of palmitate on SCD-1 promoter” value in the test with SCD-1 promoter (cells treated with a mixture of palmitate and palmitoleate) is “antagonized”. Moreover, the “SCD-1 promoter-driven reporter activity” value in the test with SCD-1 promoter (hepatocytes (FAO) treated with a single fatty acid, 300 μM) is “negatively regulated; also recorded: comparable to arachidonic acid; also recorded: suppressed”. Moreover, in test [1], the “liver insulin signaling (insulin receptor and AKT activation)” value is “enhanced”. The glucose uptake result in the test on C2C12 cells is reported as “stimulated glucose uptake into C2C12 cells to a level similar to insulin”.
